Experiments:
[1] = tested on: lipase; assay: Lipase activity retention in detergent use solution (4000 ppm, 5 GPG water; p-nitrophenyl valerate, TRIS buffer pH 8.0); format: biochemical; details: for Relative Lipase Enzyme Activity in a Use Solution: Table 6E, room temperature; for Relative Lipase Enzyme Activity in a Use Solution of the All Ash Detergent Composition: Table 6F, all ash formula, 120º F.; for Relative Lipase Enzyme Activity: base formula
Description: The enzyme […] collected up to 4 hours, after a use solution was generated from the detergent composition. During the tests, the samples at different time points were collected and immediately frozen in an acetone/dry ice bath and stored in −80° C. before the activity of the enzyme was evaluated. For the use of such an assay, t=0 min was the reference point for 100% enzyme activity.
(§1) Assays of enzyme activity in formulations (% retention) were conducted to simulate a presoak condition in a beaker using the chemistry, temperature, and pH conditions relevant to manual warewash or presoak applications. Enzyme activity is an indicator of the stability of the enzyme in the detergent, specifically in an aqueous use solution within a sump (which is under conditions of high pH, temperature and dilution).
Enzyme activity under presoak or manual warewash conditions was traced quantitatively using a standard protease assay. Samples were prepared under bench top conditions, whereby the use solution from a detergent composition or detergent was obtained and maintained at a presoak or manual warewash temperature in a stirring water bath. After the time course for assessing enzyme stability is initiated, aliquots were taken at various time points and flash-frozen. A time=0 sample was prepared for each series by dissolving the detergent formulation at room temperature, mixing thoroughly, and flash freezing. Samples were thawed and diluted as necessary in an assay buffer usually for use in the protease assay. A glycine buffer at pH 9.0 is used here. The assay monitored the direct reaction of the protease on a small, commercially available peptidyl substrate, with liberation of the product providing correlation to the active enzyme content. The product was detected using a plate reader with an appreciable dynamic range (upper absorbance limit of the instrument >3.5). Enzyme activity levels were assessed relative to a calibration curve with average values for replicate tests used to map protease stability under presoak or manual warewash use conditions. Enzyme retention at each time point was calculated as the % enzyme activity relative to the time=0 sample.
The analysis by lipase and amylase assay was conducted similarly, except with a different substrate and buffers. For lipase activity, the substrate is p-nitrophenyl valerate, and for amylase, the substrate is an ethylidene substrate (EPS). The buffer used in lipase assay is TRIS (Tris(hydroxymethyl)aminomethane) buffer at pH 8.0, and in amylase assay HEPES (4-(2-hydroxyethyl)-1-piperazineethanesulfonic acid) buffer at pH 8.0.

[2] = tested on: enzyme (protease, amylase, lipase); assay: Overall effects of phosphonates on enzyme activity (Table 3); format: biochemical; details: overall effect of the phosphonate on enzyme activity in the detergent use solution
Description: The enzyme activities in the detergents with different phosphonate levels were tested at 4000 ppm in 5 grains per gallon (GPG) water at 120° F. with various time points collected up to 4 hours, after a use solution was generated from the detergent composition. During the tests, the samples at different time points were collected and immediately frozen in an acetone/dry ice bath and stored in −80° C. before the activity of the enzyme was evaluated. For the use of such an assay, t=0 min was the reference point for 100% enzyme activity.
as §1
The relative enzyme activities in a use solution of the tested detergent compositions containing a different phosphonate at different concentrations over a period time are listed in Table 4A-Table 4E, Table 5A-Table 5E, and Table 6A-Table 6F.

[3] = phosphonate 0.3 wt-%, time 90 min
[4] = phosphonate 0.3 wt-%, time 120 min
[5] = phosphonate 0.3 wt-%, time 150 min
[6] = phosphonate 0.3 wt-%, time 180 min
[7] = phosphonate 0.3 wt-%, time 210 min
[8] = phosphonate 0.3 wt-%, time 240 min

O=C(O)CCC(CC(=O)O)(C(=O)O)P(=O)(O)O (stereo not shown) [PBTC, Phosphonebutane tricarboxylic acid]
Relative Lipase Enzyme Activity in a Use Solution [1, 3]: 104.82%
Relative Lipase Enzyme Activity in a Use Solution [1, 4]: 102.36%
Relative Lipase Enzyme Activity in a Use Solution [1, 5]: 105.67%
Relative Lipase Enzyme Activity in a Use Solution [1, 6]: 81.94%
Relative Lipase Enzyme Activity in a Use Solution [1, 7]: 101.51%
Relative Lipase Enzyme Activity in a Use Solution [1, 8]: 110.35%
Relative Lipase Enzyme Activity in a Use Solution of the All Ash Detergent Composition ([1]; phosphonate 0.3 wt-%, time 0 min): 100.00%
Relative Lipase Enzyme Activity in a Use Solution of the All Ash Detergent Composition ([1]; phosphonate 0.3 wt-%, time 5 min): 44.27%
Relative Lipase Enzyme Activity in a Use Solution of the All Ash Detergent Composition ([1]; phosphonate 0.3 wt-%, time 10 min): 26.34%
Relative Lipase Enzyme Activity in a Use Solution of the All Ash Detergent Composition ([1]; phosphonate 0.3 wt-%, time 20 min): 13.39%
Relative Lipase Enzyme Activity in a Use Solution of the All Ash Detergent Composition ([1]; phosphonate 0.3 wt-%, time 40 min): 3.62%
Relative Lipase Enzyme Activity in a Use Solution of the All Ash Detergent Composition ([1]; phosphonate 0.3 wt-%, time 60 min): 1.82%
Relative Lipase Enzyme Activity in a Use Solution of the All Ash Detergent Composition [1, 3]: 0.36%
Relative Lipase Enzyme Activity in a Use Solution of the All Ash Detergent Composition [1, 4]: 0.52%
Relative Lipase Enzyme Activity in a Use Solution of the All Ash Detergent Composition [1, 5]: 2.28%
Relative Lipase Enzyme Activity in a Use Solution of the All Ash Detergent Composition [1, 6]: 2.33%
Relative Lipase Enzyme Activity in a Use Solution of the All Ash Detergent Composition [1, 7]: 3.25%
Relative Lipase Enzyme Activity in a Use Solution of the All Ash Detergent Composition [1, 8]: 3.58%
Relative Lipase Enzyme Activity ([1]; phosphonate 0.3 wt-%, use solution at 120° F., time 0 min): 100.00%
Relative Lipase Enzyme Activity ([1]; phosphonate 0.3 wt-%, use solution at 120° F., time 5 min): 73.63%
Relative Lipase Enzyme Activity ([1]; phosphonate 0.3 wt-%, use solution at 120° F., time 10 min): 66.55%
Relative Lipase Enzyme Activity ([1]; phosphonate 0.3 wt-%, use solution at 120° F., time 20 min): 48.22%
Relative Lipase Enzyme Activity ([1]; phosphonate 0.3 wt-%, use solution at 120° F., time 40 min): 26.23%
Relative Lipase Enzyme Activity ([1]; phosphonate 0.3 wt-%, use solution at 120° F., time 60 min): 15.51%
Relative Lipase Enzyme Activity ([1]; phosphonate 0.3 wt-%, use solution at 120° F., time 90 min): 7.72%
Relative Lipase Enzyme Activity ([1]; phosphonate 0.3 wt-%, use solution at 120° F., time 120 min): 3.90%
Relative Lipase Enzyme Activity ([1]; phosphonate 0.3 wt-%, use solution at 120° F., time 150 min): 2.70%
Relative Lipase Enzyme Activity ([1]; phosphonate 0.3 wt-%, use solution at 120° F., time 180 min): −0.75%
Relative Lipase Enzyme Activity ([1]; phosphonate 0.3 wt-%, use solution at 120° F., time 210 min): −1.86%
Relative Lipase Enzyme Activity ([1]; phosphonate 0.3 wt-%, use solution at 120° F., time 240 min): −2.20%
Relative Lipase Enzyme Activity ([1]; phosphonate 0.6 wt-%, use solution at 120º F., time 0 min): 100.00%
Relative Lipase Enzyme Activity ([1]; phosphonate 0.6 wt-%, use solution at 120º F., time 5 min): 61.52%
Relative Lipase Enzyme Activity ([1]; phosphonate 0.6 wt-%, use solution at 120º F., time 10 min): 62.20%
Relative Lipase Enzyme Activity ([1]; phosphonate 0.6 wt-%, use solution at 120º F., time 20 min): 44.99%
Relative Lipase Enzyme Activity ([1]; phosphonate 0.6 wt-%, use solution at 120º F., time 40 min): 31.89%
Relative Lipase Enzyme Activity ([1]; phosphonate 0.6 wt-%, use solution at 120º F., time 60 min): 23.30%
Relative Lipase Enzyme Activity ([1]; phosphonate 0.6 wt-%, use solution at 120º F., time 90 min): 16.36%
Relative Lipase Enzyme Activity ([1]; phosphonate 0.6 wt-%, use solution at 120º F., time 120 min): 12.11%
Relative Lipase Enzyme Activity ([1]; phosphonate 0.6 wt-%, use solution at 120º F., time 150 min): 9.68%
Relative Lipase Enzyme Activity ([1]; phosphonate 0.6 wt-%, use solution at 120º F., time 180 min): 6.06%
Relative Lipase Enzyme Activity ([1]; phosphonate 0.6 wt-%, use solution at 120º F., time 210 min): 6.80%
Relative Lipase Enzyme Activity ([1]; phosphonate 0.6 wt-%, use solution at 120º F., time 240 min): 5.96%
Relative Lipase Enzyme Activity ([1]; phosphonate at 0.1% elemental phosphorus, at 120º F. or at room temperature (as titled), time 0 min): 100.00%
Relative Lipase Enzyme Activity ([1]; phosphonate at 0.1% elemental phosphorus, at 120º F. or at room temperature (as titled), time 5 min): 87.75%
Relative Lipase Enzyme Activity ([1]; phosphonate at 0.1% elemental phosphorus, at 120º F. or at room temperature (as titled), time 10 min): 73.69%
Relative Lipase Enzyme Activity ([1]; phosphonate at 0.1% elemental phosphorus, at 120º F. or at room temperature (as titled), time 20 min): 56.53%
Relative Lipase Enzyme Activity ([1]; phosphonate at 0.1% elemental phosphorus, at 120º F. or at room temperature (as titled), time 40 min): 25.32%
Relative Lipase Enzyme Activity ([1]; phosphonate at 0.1% elemental phosphorus, at 120º F. or at room temperature (as titled), time 60 min): 19.97%
Relative Lipase Enzyme Activity ([1]; phosphonate at 0.1% elemental phosphorus, at 120º F. or at room temperature (as titled), time 90 min): 15.95%
Relative Lipase Enzyme Activity ([1]; phosphonate at 0.1% elemental phosphorus, at 120º F. or at room temperature (as titled), time 120 min): 12.52%
Relative Lipase Enzyme Activity ([1]; phosphonate at 0.1% elemental phosphorus, at 120º F. or at room temperature (as titled), time 150 min): 11.11%
Relative Lipase Enzyme Activity ([1]; phosphonate at 0.1% elemental phosphorus, at 120º F. or at room temperature (as titled), time 180 min): 10.01%
Relative Lipase Enzyme Activity ([1]; phosphonate at 0.1% elemental phosphorus, at 120º F. or at room temperature (as titled), time 210 min): 9.16%
Relative Lipase Enzyme Activity ([1]; phosphonate at 0.1% elemental phosphorus, at 120º F. or at room temperature (as titled), time 240 min): 9.12%
Stability (effects on enzyme activity) [2]: No

— patent US11807835B2, “Detergent compositions containing a stabilized enzyme by phosphonates” (ECOLAB USA INC., priority 2016, dated 2023)
